According to paper PMC7252619 (PLoS ONE, 2020):
Where two headings read alike, the source gives them in different places.

Molecular target: T1, MST-4 (Homo sapiens, UniProt Q9P289)
T1 construct: purchased ReactionBiology
Assay: Kinase activity test (ReactionBiology), % enzyme activity relative to DMSO;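 note: marketed FDA-approved drugs screened at 10 µM and 1 µM against a ten-kinase panel, remaining activity given as percent of DMSO controls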
Assay type: biochemical
Conditions: MST4

[1] = Average, read-out: % Enzyme Activity (relative to DMSO controls), Average
[2] = replicate Data 1, read-out: % Enzyme Activity (relative to DMSO controls), Data 1
[3] = replicate Data 2, read-out: % Enzyme Activity (relative to DMSO controls), Data 2

T1 sequence (Q9P289 whole entry): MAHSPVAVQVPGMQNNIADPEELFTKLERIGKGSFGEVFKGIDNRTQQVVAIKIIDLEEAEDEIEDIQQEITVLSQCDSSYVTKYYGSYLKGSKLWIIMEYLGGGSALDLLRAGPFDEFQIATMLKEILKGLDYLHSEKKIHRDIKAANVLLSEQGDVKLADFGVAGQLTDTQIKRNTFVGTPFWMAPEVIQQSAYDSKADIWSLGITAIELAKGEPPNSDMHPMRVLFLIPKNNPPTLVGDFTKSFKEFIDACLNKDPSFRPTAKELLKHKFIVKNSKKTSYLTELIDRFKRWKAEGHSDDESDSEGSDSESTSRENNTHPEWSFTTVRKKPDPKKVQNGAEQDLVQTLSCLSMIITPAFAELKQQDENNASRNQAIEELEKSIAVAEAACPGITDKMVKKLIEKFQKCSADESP

remaining activity at 1 µM [1]: 91.7%
remaining activity at 1 µM [2]: 92.1%
remaining activity at 1 µM [3]: 91.2%
remaining activity at 10 µM [1]: 78.5%
remaining activity at 10 µM [2]: 69.9%
remaining activity at 10 µM [3]: 87.1%
Compound: Nc1ncnc2c1ncn2[C@@H]1O[C@H](CO)[C@@H](O)[C@H]1O [Adenosine, reference compound]
